Where “and” joins values, the source holds several entries; their conditions need not be identical. Equal entries are not always repeated. Inconclusive results and toxic doses are left out. The calls were made as follows: active = survival T/C of 150% or more; inactive = T/C below 125% in these data.
Tested on: P388 leukemia ip, CD2F1 mice, survival T/C
Experiment: NCI In Vivo Anticancer Drug Screen. Data for tumor model P388 Leukemia (intraperitoneal) in CD2F1 (CDF1) mice
Conditions: endpoint: median survival time, higher = longer survival
Outline: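 Mice carrying the transplanted tumor received test compound or vehicle. Survival was recorded in each group, and the value is the treated-group measurement divided by that of the vehicle-treated control group.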

[1] = dose: 200.0 mg/kg/injection, schedule: Q01DX009 (ip), vehicle: Klucel (hydroxypropylcellulose) (HPC)
[2] = dose: 50.0 mg/kg/injection, schedule: Q01DX005 (ip), vehicle: saline with Tween-80
[3] = dose: 100.0 mg/kg/injection, schedule: Q01DX005 (ip), vehicle: saline with Tween-80
[4] = dose: 200.0 mg/kg/injection, schedule: Q01DX005 (ip), vehicle: saline with Tween-80
[5] = dose: 60.0 mg/kg/injection, schedule: Q01DX005 (ip), vehicle: Klucel (hydroxypropylcellulose) (HPC)
[6] = dose: 120.0 mg/kg/injection, schedule: Q01DX005 (ip), vehicle: Klucel (hydroxypropylcellulose) (HPC)
[7] = dose: 240.0 mg/kg/injection, schedule: Q01DX005 (ip), vehicle: Klucel (hydroxypropylcellulose) (HPC)

Measured: T/C

COc1ccc2cc1-c1cc(ccc1O)CCC(O)CC1CCCC(CC(OC(C)=O)CC2)N1 (centres undefined)
inactive: dose: 15.0 mg/kg/injection, schedule: Q01DX009 (ip), vehicle: Klucel (hydroxypropylcellulose) (HPC) 107 % of control | dose: 30.0 mg/kg/injection, schedule: Q01DX009 (ip), vehicle: Klucel (hydroxypropylcellulose) (HPC) 100 % of control | dose: 60.0 mg/kg/injection, schedule: Q01DX009 (ip), vehicle: Klucel (hydroxypropylcellulose) (HPC) 100 % of control

c1c(-c2cc(C3CC3)on2)noc1C1CC1
inactive: dose: 60.0 mg/kg/injection, schedule: Q01DX005 (ip), vehicle: saline 100 % of control | dose: 120.0 mg/kg/injection, schedule: Q01DX005 (ip), vehicle: saline 109 % of control | dose: 240.0 mg/kg/injection, schedule: Q01DX005 (ip), vehicle: saline 105 % of control

COC1=C(OC)S[C@H]2[C@@H]3C[C@@H]([C@H]4CC=C[C@@H]34)[C@H]2S1
inactive: dose: 50.0 mg/kg/injection, schedule: Q01DX005 (ip), vehicle: Klucel (hydroxypropylcellulose) (HPC) 100 % of control | dose: 100.0 mg/kg/injection, schedule: Q01DX005 (ip), vehicle: Klucel (hydroxypropylcellulose) (HPC) 103 % of control | dose: 200.0 mg/kg/injection, schedule: Q01DX005 (ip), vehicle: Klucel (hydroxypropylcellulose) (HPC) 97 % of control

O=C1OC(C2OC(=O)C(=O)C2C(=O)c2ccc(Cl)cc2)C(C(=O)c2ccc(Cl)cc2)C1=O (centres undefined)
inactive: dose: 60.0 mg/kg/injection, schedule: Q01DX005 (ip), vehicle: saline + Tween-80 + alcohol 95 % of control | dose: 120.0 mg/kg/injection, schedule: Q01DX005 (ip), vehicle: saline + Tween-80 + alcohol 92 % of control | dose: 240.0 mg/kg/injection, schedule: Q01DX005 (ip), vehicle: saline + Tween-80 + alcohol 94 % of control

OCC1OC(n2cnc3c(Cl)ncnc32)CC1O (centres undefined)
inactive: dose: 50.0 mg/kg/injection, schedule: Q01DX005 (ip), vehicle: saline 94 % of control | dose: 100.0 mg/kg/injection, schedule: Q01DX005 (ip), vehicle: saline 92 % of control | dose: 200.0 mg/kg/injection, schedule: Q01DX005 (ip), vehicle: saline 102 % of control

CC1C(c2ccccc2)OC(c2ccccc2)N1C (centres undefined)
inactive: dose: 12.5 mg/kg/injection, schedule: Q01DX005 (ip), vehicle: water 93 % of control | dose: 25.0 mg/kg/injection, schedule: Q01DX005 (ip), vehicle: water 93 % of control | dose: 50.0 mg/kg/injection, schedule: Q01DX005 (ip), vehicle: water 98 % of control | dose: 100.0 mg/kg/injection, schedule: Q01DX005 (ip), vehicle: water 93 % of control | dose: 200.0 mg/kg/injection, schedule: Q01DX005 (ip), vehicle: water 98 % of control

CCN(Cc1c(C)nc2ccc(N(C)C)cc2c1Cl)CN(CC)Cc1c(C)nc2ccc(N(C)C)cc2c1Cl
inactive: dose: 100.0 mg/kg/injection, schedule: Q01DX002 (ip), vehicle: saline with Tween-80 100 % of control | dose: 200.0 mg/kg/injection, schedule: Q01DX002 (ip), vehicle: saline with Tween-80 94 % of control | dose: 400.0 mg/kg/injection, schedule: Q01DX002 (ip), vehicle: saline with Tween-80 98 % of control

OCCCCC/C=C/CCCCCCC1C=CCC1 (centres undefined)
inactive: dose: 100.0 mg/kg/injection, schedule: Q01DX001 (ip), vehicle: saline 99 % of control | dose: 200.0 mg/kg/injection, schedule: Q01DX001 (ip), vehicle: saline 99 % of control | dose: 400.0 mg/kg/injection, schedule: Q01DX001 (ip), vehicle: saline 99 % of control

CCOC(=O)N1Cc2cc3ccccc3nc2C1CC(=O)O (centres undefined)
inactive: [1] 95 % of control | dose: 400.0 mg/kg/injection, schedule: Q01DX009 (ip), vehicle: Klucel (hydroxypropylcellulose) (HPC) 104 % of control

OC1c2ccccc2-c2ccc(N(Cc3ccc(Br)cc3)Cc3ccc(Br)cc3)cc21 (centres undefined)
inactive: [2] 100 % of control | [3] 91 % of control | [4] 92 % of control

C=CCn1ccn(C)c1=S
inactive: dose: 100.0 mg/kg/injection, schedule: Q04DX003 (ip), vehicle: saline with Tween-80 101 % of control | dose: 200.0 mg/kg/injection, schedule: Q04DX003 (ip), vehicle: saline with Tween-80 98 % of control | dose: 400.0 mg/kg/injection, schedule: Q04DX003 (ip), vehicle: saline with Tween-80 102 % of control

COC(=O)c1nnn(-c2cc(Cl)ccc2Cl)c1C(=O)c1ccc(OC)cc1
inactive: dose: 60.0 mg/kg/injection, schedule: Q01DX005 (ip), vehicle: saline with Tween-80 95 % of control | dose: 120.0 mg/kg/injection, schedule: Q01DX005 (ip), vehicle: saline with Tween-80 100 % of control | dose: 240.0 mg/kg/injection, schedule: Q01DX005 (ip), vehicle: saline with Tween-80 89 % of control

CC(C)N(Cc1ccccc1)C(=O)Nc1ccc(Cc2ccc(NC(=O)N(Cc3ccccc3)C(C)C)cc2)cc1
inactive: dose: 50.0 mg/kg/injection, schedule: Q01DX009 (ip), vehicle: Klucel (hydroxypropylcellulose) (HPC) 90 % of control | dose: 100.0 mg/kg/injection, schedule: Q01DX009 (ip), vehicle: Klucel (hydroxypropylcellulose) (HPC) 96 % of control | [1] 93 % of control

COc1ccc(C(c2cc3c(cc2O)OCO3)N2CCOCC2)c(OC)c1 (centres undefined)
inactive: [5] 101 % of control | [6] 99 % of control | [7] 110 % of control

CC(N)(CO)C(=O)O (centres undefined)
inactive: dose: 100.0 mg/kg/injection, schedule: Q04DX003 (ip), vehicle: saline 104 % of control | dose: 200.0 mg/kg/injection, schedule: Q04DX003 (ip), vehicle: saline 90 % of control | dose: 400.0 mg/kg/injection, schedule: Q04DX003 (ip), vehicle: saline 100 % of control

COC1=CS(C)(=O)=CC(SC)=C1C#N (centres undefined)
inactive: dose: 50.0 mg/kg/injection, schedule: Q04DX002 (ip), vehicle: Klucel (hydroxypropylcellulose) (HPC) 99 % of control | dose: 100.0 mg/kg/injection, schedule: Q04DX002 (ip), vehicle: Klucel (hydroxypropylcellulose) (HPC) 99 % of control | dose: 200.0 mg/kg/injection, schedule: Q04DX002 (ip), vehicle: Klucel (hydroxypropylcellulose) (HPC) 98 % of control

COC(=O)c1cc(=O)n2c(nc3ccccc32)s1
inactive: dose: 50.0 mg/kg/injection, schedule: Q01DX005 (ip), vehicle: acetone 108 % of control | dose: 100.0 mg/kg/injection, schedule: Q01DX005 (ip), vehicle: acetone 104 % of control | dose: 200.0 mg/kg/injection, schedule: Q01DX005 (ip), vehicle: acetone 101 % of control

CN1C(=O)C2CCCN2C(=O)C1(C)NC(=O)OCc1ccccc1 (centres undefined)
inactive: dose: 3.12 mg/kg/injection, schedule: Q04DX003 (ip), vehicle: saline 107 % of control and 98 % of control | dose: 6.25 mg/kg/injection, schedule: Q04DX003 (ip), vehicle: saline 105 % of control and 98 % of control | dose: 12.5 mg/kg/injection, schedule: Q04DX003 (ip), vehicle: saline 102 % of control and 105 % of control | dose: 25.0 mg/kg/injection, schedule: Q04DX003 (ip), vehicle: saline 99 % of control and 107 % of control | dose: 25.0 mg/kg/injection, schedule: Q04DX003 (ip), vehicle: suspension in saline 100 % of control

Nc1cncc2nnnn12
inactive: [5] 104 % of control | [6] 104 % of control | [7] 113 % of control

Nc1ccc2nc3cc(Nc4ccccc4)c(=Nc4ccccc4)cc-3n(-c3ccccc3)c2c1
inactive: [2] 100 % of control | [3] 98 % of control | [4] 93 % of control

Brc1ccc2c(NCCCCCCCCNc3c4ccccc4nc4cc(Br)ccc34)c3ccccc3nc2c1
inactive: dose: 0.32 mg/kg/injection, schedule: Q01DX009 (ip), vehicle: other 100 % of control | dose: 0.63 mg/kg/injection, schedule: Q01DX009 (ip), vehicle: other 99 % of control | dose: 1.25 mg/kg/injection, schedule: Q01DX009 (ip), vehicle: other 107 % of control | dose: 2.5 mg/kg/injection, schedule: Q01DX009 (ip), vehicle: other 109 % of control | dose: 5.0 mg/kg/injection, schedule: Q01DX009 (ip), vehicle: other 96 % of control | dose: 10.0 mg/kg/injection, schedule: Q01DX009 (ip), vehicle: other 101 % of control

From PubChem BioAssay AID330 (DTP/NCI, 2004)
